Measured values published in patent US20050256003A1, “Novel herbicides” (priority 2002, published 2005).

Key:
[1] = system: monocotyledonous and dicotyledonous test plants; assay: Herbicidal action prior to emergence of the plants (pre-emergence action); assay type: in vivo; design: key: 10=total damage; 0=no action; Ratings of from 10 to 7 (especially from 10 to 8) indicate good to very good herbicidal action; conditions: 250 g a.i./ha, pre-emergence spray, evaluated after 3 weeks, scale 10=total damage, 0=no action
Text: Herbicidal Action Prior to Emergence of the Plants (Pre-Emergence Action)
Monocotyledonous and dicotyledonous test plants are sown in standard soil in plastic pots Immediately after sowing, the test compounds, in the form of an aqueous suspension (prepared from a 25% wettable powder (Example F3, b) according to WO 97/34485) or in the form of an emulsion (prepared from a 25% emulsifiable concentrate (Example F1, c)), are applied by spraying in a concentration corresponding to 125 g or 250 g of active ingredient/ha (500 litres of water/ha). The test plants are then grown in a greenhouse under optimum conditions. After a test duration of 3 weeks, the test is evaluated in accordance with a scale of nine ratings (10=total damage, 0=no action). Ratings of from 10 to 7 (especially from 10 to 8) indicate good to very good herbicidal action.

[2] = system: monocotyledonous and dicotyledonous test plants; assay: Post-emergence herbicidal action; assay type: in vivo; design: key: 10=total damage; 0=no action; Ratings of from 10 to 7 (especially from 10 to 8) indicate good to very good herbicidal action; conditions: about 18 days, rating 0-10
Procedure: Post-Emergence Herbicidal Action
In a greenhouse, monocotyledonous and dicotyledonous test plants are grown in standard soil in plastic pots and at the 4- to 6-leaf stage are sprayed with an aqueous suspension of the test compounds of formula I prepared from a 25% wettable powder (Example F3, b) according to WO 97/34485) or with an emulsion of the test compounds of formula I prepared from a 25% emulsifiable concentrate (Example F1, c) according to WO 97/34485), in a concentration corresponding to 125 g or 250 g of active ingredient/ha (500 litres of water/ha). The test plants are then grown on in a greenhouse under optimum conditions. After a test duration of about 18 days, the test is evaluated in accordance with a scale of nine ratings (10=total damage, 0=no action). Ratings of from 10 to 7 (especially from 10 to 8) indicate good to very good herbicidal action.

Structure (SMILES) | Pre-emergence action: Abutilon (rating) [1] | Pre-emergence action: Amaranthus (rating) [1] | Pre-emergence action: Chenopodium (rating) [1] | Pre-emergence action: Cyperus (rating) [1] | Pre-emergence action: Echinochloa (rating) [1] | Pre-emergence action: Panicum (rating) [1] | Pre-emergence action: Scirpus (rating) [1] | Pre-emergence action: Sida (rating) [1] | Post-emergence action, Amaranthus ([2]; 250 g a.i./ha) | Post-emergence action, Chenopodium ([2]; 250 g a.i./ha) | Post-emergence action, Echinochloa ([2]; 250 g a.i./ha) | Post-emergence action, Euphorbia ([2]; 250 g a.i./ha) | Post-emergence action, Ipomea ([2]; 250 g a.i./ha) | Post-emergence action, Sinapis ([2]; 250 g a.i./ha) | Post-emergence action, Stellaria ([2]; 250 g a.i./ha) | Post-emergence action, Xanthium ([2]; 250 g a.i./ha) | further results
Cn1ncn(Cc2nc(C(F)(F)F)ccc2C(=O)C2=C(O)C(C)(C)C(=O)C(C)(C)C2=O)c1=O [Compound A8.080] | 10 | 0 | 10 | 0 | 10 | 9 | 8 | 9 | 9 | 10 | 9 | 9 | 10 | 10 | 10 | 8 | –
Cn1ncc(C(=O)c2ccc(C(F)(F)F)nc2Cn2cnn(C)c2=O)c1O [Compound B1.080] | 8 | 0 | 10 | 9 | 10 | 10 | 9 | 0 | 10 | 10 | 9 | 10 | 10 | 10 | 10 | 8 | –
Cn1ncn(Cc2nc(C(F)(F)F)ccc2C(=O)C2=C(O)C3CCC(C3)C2=O)c1=O (stereo not drawn) [Compound A6.073] | 10 | 9 | 10 | 7 | 0 | 10 | 10 | 9 | 10 | 10 | 9 | 9 | 10 | 10 | 9 | 9 | –
Cn1ncn(Cc2nc(C(F)(F)F)ccc2C(=O)C2=C(O)CCCC2=O)c1=O [Compound A1.073] | 10 | 10 | 10 | 10 | 3 | 10 | 10 | 9 | 10 | 10 | 9 | 9 | 10 | 10 | 10 | 9 | –
Cc1nn(Cc2nc(C(F)(F)F)ccc2C(=O)c2cnn(C)c2O)c(=O)o1 [Compound B1.008] | 10 | 10 | 10 | 9 | 9 | 10 | 10 | 9 | 9 | 10 | 9 | 8 | 9 | 7 | 8 | – | –
Cc1nn(Cc2nc(C(F)(F)F)ccc2C(=O)C2=C(O)C3CCC(C3)C2=O)c(=O)s1 (stereo not drawn) [Compound A6.079] | 10 | 7 | 10 | 6 | 7 | 9 | 9 | 6 | – | – | – | – | – | – | – | – | –
CSC(C)n1c(C)cc(=O)n1Cc1nc(C(F)(F)F)ccc1C(=O)C1=C(O)CCCC1=O (racemic) [Compound A1.055] | 10 | 0 | 10 | 10 | 10 | 9 | 9 | 10 | – | – | – | – | – | – | – | – | –
Cn1c(C(F)(F)F)nn(Cc2nc(C(F)(F)Cl)ccc2C(=O)C2=C(O)CCCC2=O)c1=O [Compound A1.001, 2-[6-(Chloro-difluoro-methyl)-3-(2-hydroxy-6-oxo-cyclohex-1-ene-carbonyl)-pyridin-2-ylmethyl]-4-methyl-5-trifluoromethyl-2.4-dihydro-[1.2.4]triazol-3-one] | – | – | – | – | – | – | – | – | – | – | – | – | – | – | – | – | Post-emergence action, Amaranthus ([2]; 125 g a.i./ha): 8; Post-emergence action, Chenopodium ([2]; 125 g a.i./ha): 9; Post-emergence action, Echinochloa ([2]; 125 g a.i./ha): 4; Post-emergence action, Euphorbia ([2]; 125 g a.i./ha): 4; Post-emergence action, Ipomea ([2]; 125 g a.i./ha): 8; Post-emergence action, Sinapis ([2]; 125 g a.i./ha): 8; Post-emergence action, Stellaria ([2]; 125 g a.i./ha): 8; Post-emergence action, Xanthium ([2]; 125 g a.i./ha): 8
CCOc1nn(Cc2nc(C(F)(F)F)ccc2C(=O)C2=C(O)CCCC2=O)c(=O)n1C1CC1 [Compound A1.049] | – | – | – | – | – | – | – | – | 9 | 8 | 8 | 9 | 9 | 8 | 8 | 9 | –
O=C1CCCC(O)=C1C(=O)c1ccc(C(F)(F)F)nc1Cn1sccc1=O [Compound A1.109] | – | – | – | – | – | – | – | – | 9 | 10 | 8 | 10 | 9 | 3 | 5 | 9 | –
CCN1C(=O)N(Cc2nc(C(F)(F)F)ccc2C(=O)C2=C(O)CCCC2=O)C(=O)C1C (racemic) [Compound A1.181] | – | – | – | – | – | – | – | – | 9 | 8 | 4 | 8 | 8 | 5 | 7 | 8 | –
CCOc1nn(Cc2nc(C(F)(F)F)ccc2C(=O)c2cnn(C)c2O)c(=O)n1CC [Compound B1.050] | – | – | – | – | – | – | – | – | 9 | 9 | 4 | 9 | 7 | 9 | 7 | 8 | –
